Reference: patent US4772616A, “Treatment of ocular hypertension and glaucoma with dopamine antagonists” (priority 1987, dated 1988)
Entries after “also recorded” stand apart in the source; their conditions may differ. Read-outs that look alike come from different tables or passages of the source.

Tests used:
[1] = tested on: intraocular pressure (IOP); test: Intraocular pressure (IOP) recovery model in rabbits after hypertonic saline (20% NaCl) infusion; format: in vivo, Albino rabbits; details: for potency in lowering intraocular pressure compared with timolol: FIGS. 1-5; for potency in lowering intraocular pressure compared with pilocarpine and timolol: in vivo
Method: Albino rabbits of either sex, weighing 2.25-2.5 kg were used for this intraocular pressure (IOP) recovery model experiment. Hypertonic saline (20% NaCl) was infused into the ear vein at a rate of 1 ml/min. for 10 minutes. The IOP was determined with Mackay-Marg electronic applanation tonometer (Berkeley Bio-Engineering, San Leandro, Calif.) at 0, 5, 10, 15, 20, 40, 60, 80, and every 30 minutes thereafter. The IOP decreased abruptly right after the infusion of hypertonic saline and recovered to normal in approximately 80-110 minutes. Identical experiments were repeated with the same group of animals one week later, wherein addition to the hypertonic saline infusion, haloperidol was instilled into the eyes in the form of 50 μl of an aqueous solution of 0.125 wt % haloperidol.
The procedure performed in Example 1 was carried out in the same manner, except that an aqueous solution of 0.25 wt % haloperidol was employed.
The procedure performed in Example 1 was carried out in the same manner, except that an aqueous solution of 0.25 wt % moperone was used.
The procedure performed in Example 1 was carried out in the same manner, except that an aqueous solution of 0.25 wt % trifluperidol was used.
The procedure performed in Example 1 was carried out in the same manner, except that an aqueous solution of 0.25 wt % L-timolol was used.
The procedure performed in Example 1 was carried out in the same manner, except that an aqueous solution of 0.25 wt % clofluperol was used.
The procedure performed in Example 1 was carried out in the same manner, except that an aqueous solution of 0.25 wt % floropipamide was used.
The procedure performed in Example 1 was carried out in the same manner, except that an aqueous solution of 0.25 wt % lenperone was used.
The procedure performed in Example 1 was carried out in the same manner with the following exceptions: (a) an Alcon electronic applanation tonometer (Alcon Laboratories, Inc., Ft. Worth, Tex.) was used to determine IOP; and (b) an aqueous solution of 0.25 wt % trifluoperazine was used.
The procedure performed in Example 10 was carried out in the same manner, except that an aqueous solution of 0.25 wt % chlorpromazine was used.
The procedure performed in Example 10 was carried out in the same manner, except that an aqueous solution of 0.5 wt % domperidone was used.

[2] = tested on: aqueous humor formation and intraocular pressure; test: Studies of ability to reduce aqueous humor formation and intraocular pressure in rabbits and cats; details: rabbit, in vivo
Source text: The dopamine antagonists of the present invention have been studied with respect to their ability to reduce aqueous humor formation and intraocular pressure in rabbits and cats. The studies indicate that the compounds are effective in reducing aqueous humor formation and intraocular pressure subsequent to topical and intracameral application.

intraocular pressure = details: cited from earlier work
[3] = tested on: aqueous humor (AH) dynamics; test: Cat eye model, aqueous humor (AH) dynamics (rates of AH formation and outflow, blue dextran); format: in vivo, cats; details: 50 μl of 0.5% eye drops
Method: The cat eye model was used for the study of haloperidol actions in aqueous humor (AH) dynamics. Briefly, cats of either sex weighing 2.5-4.0 kg were anesthetized with 30 mg/kg of pentobarbital sodium. Systemic blood pressure was monitored through cannulation at the femoral artery and additional pentobarbital was injected via femoral vein. Three needles were put into each eye. The first one was placed in the anterior chamber for the monitoring of IOP. The second one was placed at the posterior chamber for the infusion of AH-like solution containing 0.01% of blue dextran (NaCl, 137; KCl, 4.7; CaCl2, 1.53; MgCl2, 0.67; Na2 HPO4, 0.11 and dextrose, 5.56 mM). The rate of the infusion was adjusted to 38 μl/min. The third one was placed in the anterior chamber to serve as an overflow outlet. The overflown solution passed through a microspectrophotometric cell (ISCO, UA-5, Lincoln, Nebr.) for the detection of changes of blue dextran concentration and through a drop counter (ISCO, Model 328) for the recording of overflow rate.
Haloperidol (50 μl of 0.5% eye drops) was instilled to the eyes when the blue dextran tracings were stabilized (in about 2 hrs. after the initiation of the infusion). The rates of AH formation (rf) and outflow (ro) were calculated as follows: […]

[4] = Systemic absorption after topical instillation to the eye; format: in vivo; details: assuming not more than 10% of topically instilled drug absorbed systemically
[5] = background; cited from earlier work
[6] = background; cited from earlier work; remark: listed apart in the source
[7] = Oryctolagus cuniculus, topical, read-out: Difference in Max Reduction of IOP
[8] = rabbit, 0.25% drug, Alcon electronic applanation tonometer
[9] = rabbit, 0.25 wt % aqueous solution, Alcon tonometer
[10] = rabbit, 0.125% drug, Mackay-Marg tonometer, 50 μl eye instillation
[11] = rabbit, 0.25 wt % aqueous solution
[12] = Oryctolagus cuniculus, topical, rabbit, 0.25% drug, Mackay-Marg tonometer, 100% control IOP 20.2 ± 1.3 mm Hg, 20% saline alone 65 ± 1, read-out: Difference in Max Reduction of IOP
[13] = rabbit, 0.25% drug, Mackay-Marg tonometer, 50 μl eye instillation
[14] = rabbit, 0.25 wt % aqueous solution, Mackay-Marg tonometer

Compound: CN(C)CCCN1c2ccccc2Sc2ccc(Cl)cc21 [Chlorpromazine]
- response vs control in vivo at 0.25 % [1, 7]: 52 ± 3%
- Time Delay for IOP Recovery Relative to Control [1, 8]: 120 min
- shift of the IOP recovery curve relative to the control curve [1, 9]: indicates the ocular hypotensive action

Compound: O=C(CCCN1CCC(O)(c2ccc(Cl)c(C(F)(F)F)c2)CC1)c1ccc(F)cc1 [Clofluperol]
- potency in lowering intraocular pressure compared with timolol [1]: at least equipotent to timolol
- response vs control in vivo at 0.125 % [1, 7]: 59 ± 2%
- Time Delay for IOP Recovery Relative to Control [1, 10]: 60 min
- IOP recovery compared with L-timolol [1, 11]: generally equivalent to that of L-timolol
- reduction of aqueous humor formation and intraocular pressure [2]: reduce significantly

Compound: CC(C)(C)NC[C@@H](O)COc1nsnc1N1CCOCC1 [D-timolol]
- intraocular pressure reducing response compared with S isomer (intraocular pressure; U.S. Pat. No. 4,521,414): substantially equivalent to that of the S isomer

Compound: O=c1[nH]c2ccccc2n1CCCN1CCC(n2c(=O)[nH]c3cc(Cl)ccc32)CC1 [Domperidone]
- response vs control in vivo at 0.5 % [1, 7]: 56 ± 4%
- Time Delay for IOP Recovery Relative to Control ([1]; rabbit, 0.5% drug, Alcon electronic applanation tonometer): 210 min
- shift of the IOP recovery curve relative to the control curve ([1]; rabbit, 0.5 wt % aqueous solution, Alcon tonometer): indicates the ocular hypotensive action

Compound: NC(=O)C1(N2CCCCC2)CCN(CCCC(=O)c2ccc(F)cc2)CC1 [Floropipamide]
- potency in lowering intraocular pressure compared with timolol [1]: at least equipotent to timolol
- response vs control in vivo at 0.25 % [1, 12]: 60 ± 3%
- Time Delay for IOP Recovery Relative to Control [1, 13]: 60 min
- IOP recovery compared with L-timolol [1, 11]: generally equivalent to that of L-timolol
- reduction of aqueous humor formation and intraocular pressure [2]: reduce significantly

Compound: O=C(CCCN1CCC(O)(c2ccc(Cl)cc2)CC1)c1ccc(F)cc1 [Haloperidol, 4-[4-(p-chlorophenyl)-4-hydroxypiperidino]-4'-fluorobutyrophenone]
- potency in lowering intraocular pressure compared with timolol [1]: more potency than timolol
- response vs control in vivo at 0.125 % [1, 7]: 45 ± 2%
- response vs control in vivo at 0.25 % [1, 7]: 46 ± 2%
- Time Delay for IOP Recovery Relative to Control [1, 10]: 180 min
- shift of the IOP recovery curve relative to the control curve ([1]; rabbit, 0.125 wt % aqueous solution): indicates the ocular hypotensive action
- Time Delay for IOP Recovery Relative to Control [1, 13]: 270 min
- shift of the IOP recovery curve relative to the control curve [1, 14]: indicates the ocular hypotensive action
- potency in lowering intraocular pressure compared with pilocarpine and timolol ([1]; rabbit): more potent than pilocarpine and timolol
- AH formation ([3]; following the initial outflow increase): decrease in aqueous humor formation; also recorded: decrease in AH formation
- AH outflow ([3]; initial effect): initial increase in aqueous humor outflow; also recorded: initially caused an increase in AH outflow
- reduction of aqueous humor formation and intraocular pressure [2]: reduce significantly
- anti-psychotic dosage level potentially absorbed as a result of glaucoma therapy [4]: 0.2% to 0.65

Compound: O=C(CCCN1CCC(C(=O)c2ccc(F)cc2)CC1)c1ccc(F)cc1 [Lenperone]
- potency in lowering intraocular pressure compared with timolol [1]: at least equipotent to timolol
- response vs control in vivo at 0.25 % [1, 12]: 61 ± 2%
- Time Delay for IOP Recovery Relative to Control [1, 13]: 60 min
- IOP recovery compared with L-timolol [1, 11]: generally equivalent to that of L-timolol
- reduction of aqueous humor formation and intraocular pressure [2]: reduce significantly

Compound: Cc1ccc(C2(O)CCN(CCCC(=O)c3ccc(F)cc3)CC2)cc1 [Moperone]
- potency in lowering intraocular pressure compared with timolol [1]: more potency than timolol
- response vs control in vivo at 0.25 % [1, 12]: 55 ± 1%
- Time Delay for IOP Recovery Relative to Control [1, 13]: 180 min
- shift of the IOP recovery curve relative to the control curve [1, 14]: indicates the ocular hypotensive action
- potency in lowering intraocular pressure compared with pilocarpine and timolol ([1]; rabbit): more potent than pilocarpine and timolol
- reduction of aqueous humor formation and intraocular pressure [2]: reduce significantly

Compound: CC(C)(C)NC[C@H](O)COc1nsnc1N1CCOCC1 [Timolol, 1-tert-butyl-amino-3-[(4-morpholino-1,2,5-thiadiazol-3-yl)oxy]-2-propanol]
- response vs control in vivo at 0.25 % [1, 12]: 62 ± 4%
- Time Delay for IOP Recovery Relative to Control [1, 13]: 60 min
- systemic absorption after topical administration to the eye [5]: a small portion is absorbed into the systemic circulation
- local anesthetic action [6]: lack of local anesthetic action
- tolerance [6]: minimal tolerance

Compound: CN1CCN(CCCN2c3ccccc3Sc3ccc(C(F)(F)F)cc32)CC1 [Trifluoperazine]
- response vs control in vivo at 0.25 % ([1]; Oryctolagus cuniculus, topical, rabbit, 0.25% drug, Alcon tonometer, 100% control IOP 20.2 ± 1.3 mm Hg, 20% saline alone 65 ± 1, read-out: Difference in Max Reduction of IOP): 49 ± 4%
- Time Delay for IOP Recovery Relative to Control [1, 8]: 150 min
- shift of the IOP recovery curve relative to the control curve [1, 9]: indicates the ocular hypotensive action

Compound: CC[C@@H]1C(=O)OC[C@@H]1Cc1cncn1C [pilocarpine]
- mechanism: effect on aqueous humor outflow and formation (intraocular pressure; comparison with haloperidol): increases aqueous humor outflow without affecting aqueous humor formation
